# Values quoted from earlier work as cited in patent publication US20040086873A1, “System and method of generating and storing correlated hyperquantified tissue structure and biomolecular expression datasets” (priority 2002, published 2004).
# Settings: 1000 mg/kg/day, intraperitoneal injection once a day, dissolved in corn oil (~15% v/v)
smiles,measurement,value
ClC(Cl)(Cl)Cl [CC14],toxicity of the dose level (hepatotoxic / lethal),hepatotoxic but not lethal
